Reference: US4927975A, “Process for preparing certain decahydro-7H-3-ol-7-ones” (Roussel Uclaf, priority 1981, dated 1990)

Tests used:
[1] = system: costovertebral organ of hamsters; assay: Costovertebral organ study repeated with female hamsters (antiandrogenic activity, topical); assay type: in vivo; conditions: for inhibition of the weight increase of the organ: right costovertebral organ, topical 5 mg/day
Description: (§1) Male golden hamsters weighing 100 to 110 g castrated 7 days earlier received a subcutaneous injection of 125 μg per day and per animal of testosterone propionate in 0.2 ml of a sesame oil solution containing 0.5% of benzyl alcohol. One group of animals received also a treatment by topical application of an ethanol solution of the test compound on the right costovertebral organ and the left costovertebral organ received only ethanol. The treatment lasted for 8 days and 24 hours after the last, the costovertebral organs and the prostate were removed and weighed.
The study was repeated with female hamsters to test the antiandrogenic activity of the compounds of Examples 7 and 13 at a dose of 5 mg/day and the results are reported in Table III.
The test was repeated on female hamsters to determine the antiandrogenic activity of the compounds of Examples 13 to 17 at 1 mg/day and the results are reported in Table IV.

[2] = system: costovertebral organ of hamsters; assay: In vivo study with costovertebral organ of hamsters (male, castrated, testosterone propionate-treated, topical test product); design: species or system Male golden hamsters; conditions: for Control Gland in mg / Treated Gland in mg: Table II, 8 days; for Control Gland in mg: left costovertebral organ (ethanol only), testosterone propionate s.c. alone or + product B 1 mg/day; for Treated Gland in mg: testosterone propionate s.c. alone or + product B 1 mg/day topical
Description: (§2) B. In vivo study with costovertebral organ of hamsters
as §1

[3] = system: prostate; assay: In vivo study with hamsters: prostate weight (male, castrated, testosterone propionate-treated, topical test product); design: species or system Male golden hamsters; conditions: for Prostate in mg: Table II, testosterone propionate s.c. alone or + product B 1 mg/day topical, 8 days
Description: as §2, §1

[4] = system: male mice; assay: Acute toxicity in male mice; assay type: in vivo; conditions: 7th day
Description: Five male mice weighing 18 to 20 g received an intraperitoneal or oral administration of decreasing doses of product B in aqueous solution containing 0.25% of carboxymethyl cellulose and 0.2% of Tween at 1000, 600 or 400 mg/kg and the number of dead mice was determined on the 7th day. The DLo or the more elevated dose at which no mortality was observed was determined to be 400 mg/kg intraperitoneally and 1000 mg/kg orally for product B.

[5] = Table III, testosterone propionate alone or + product 5 mg/day
[6] = Table III, testosterone propionate alone or + product 5 mg/day topical
[7] = Table IV, testosterone propionate alone or + product 1 mg/day
[8] = Table IV, testosterone propionate alone or + product 1 mg/day topical

## CCCC(=O)O[C@H]1CCC2C3CCC(=O)C(CC)=C3CC[C@@]21C (stereo partly shown) [Example 7, Butanoate of 3aβ-methyl-6-ethyl-7-oxo-1,2,3,3a,4,5,8,9,9a,9b-decahydro-1H-benz(e)-inden-3-yl]
[1]; [5]
  Control Gland in mg: 9,5 ± 0,8 mg
[1]; [6]
  Treated Gland in mg: 4,5 ± 0,4 mg
[1]
  inhibition of the weight increase of the organ: 90%

## CCC1=C2CC[C@@]3(C)C(CC[C@@H]3OC(C)=O)C2CCC1=O (stereo partly drawn) [Example 13, 3β-acetoxy-3aβ-methyl-6-ethyl-1,2,3,3a,4,5,8,9,9a,9b-decahydro-7H-benz(e)-inden-7-one]
[1]; [5]
  Control Gland in mg: 10,8 ± 2,1 mg
[1]; [6]
  Treated Gland in mg: 3,9 ± 0,4 mg
[1]; Table IV, 1 mg/day topical
  % inhibition of weight increase: 61%
[1]; [7]
  Control Gland in mg: 9,9 ± 1,6 mg
[1]; [8]
  Treated Gland in mg: 6,0 ± 0,2 mg
[1]
  inhibition of the weight increase of the organ: 95.6%

## CCC1=C2CC[C@@]3(C)C(CC[C@@H]3O)C2CCC1=O (stereo partly drawn) [Product B, 3aβ-methyl-6-ethyl-1,2,3,3a,4,5,8,9,9a,9b-decahydro-7-H-benz(e)-inden-3β-ol-7-one]
[2]
  Control Gland in mg: 41,8 ± 5,2 mg
[2]; right costovertebral organ
  Treated Gland in mg: 17,1 ± 2,2 mg
[2]; left (untreated) gland, product applied locally to right costovertebral organ
  antagonism of the effect of testosterone propionate on the untreated gland: did not antagonize the effect of testosterone propionate on the untreated gland
[2]; right costovertebral organ, male hamsters, topical 1 mg/day
  inhibition in the weight increase of the organ: 61%
[3]
  Prostate in mg: 80,1 ± 9,3 mg
[3]; inferred from untreated gland and prostate after local application
  systemic effect: does not have a systemic effect
[3]; product applied locally to right costovertebral organ
  antagonism of the effect of testosterone propionate on the prostate: did not antagonize the effect of testosterone propionate on the untreated gland or the prostate
[4]; intraperitoneal
  DLo (more elevated dose at which no mortality was observed): 400 mg/kg
[4]; oral
  DLo (more elevated dose at which no mortality was observed): 1000 mg/kg

## CCC(=O)O[C@H]1CC[C@H]2[C@@H]3CCC4=CC(=O)CC[C@]4(C)[C@H]3CC[C@]12C [Testosterone Propionate, testosterone propionate, reference compound]
[2]
  Control Gland in mg: 35,8 ± 5,0 mg
[2]; right costovertebral organ
  Treated Gland in mg: 33,91 ± 2,9 mg
[3]
  Prostate in mg: 79,5 ± 5,5 mg
[1]; [5]
  Control Gland in mg: 15,8 ± 1,0 mg
[1]; [6]
  Treated Gland in mg: 14,9 ± 1,1 mg
[1]; [7]
  Control Gland in mg: 11,0 ± 2,0 mg
[1]; [8]
  Treated Gland in mg: 10,2 ± 0,6 mg
